ChEMBL document CHEMBL1201862, “PubChem BioAssay data set” (2004)
Calls of active or inactive are those of the source.

Experiments:
Cytochrome P450 2C9 = Cytochrome P450 2C9 (Homo sapiens, UniProt P11712)
Cytochrome P450 2C19 = Cytochrome P450 2C19 (Homo sapiens, UniProt P33261); assay: Cytochrome panel assay with activity outcomes. Panel member name: p450-cyp2c19 Compounds with AC50 equal or less than 10 uM are considered active; type: functional; details: read-out: AC50
[1] = target: T1, Rac GTPase-activating protein 1 (Homo sapiens, UniProt Q9H0H5); assay: MgcRacGAP GTPase-activating activity inhibitors, confirmation, biochemical, ADP Hunter fluorescence, primary and confirmatory (AID 624330); type: functional
T1 sequence (Q9H0H5 whole entry): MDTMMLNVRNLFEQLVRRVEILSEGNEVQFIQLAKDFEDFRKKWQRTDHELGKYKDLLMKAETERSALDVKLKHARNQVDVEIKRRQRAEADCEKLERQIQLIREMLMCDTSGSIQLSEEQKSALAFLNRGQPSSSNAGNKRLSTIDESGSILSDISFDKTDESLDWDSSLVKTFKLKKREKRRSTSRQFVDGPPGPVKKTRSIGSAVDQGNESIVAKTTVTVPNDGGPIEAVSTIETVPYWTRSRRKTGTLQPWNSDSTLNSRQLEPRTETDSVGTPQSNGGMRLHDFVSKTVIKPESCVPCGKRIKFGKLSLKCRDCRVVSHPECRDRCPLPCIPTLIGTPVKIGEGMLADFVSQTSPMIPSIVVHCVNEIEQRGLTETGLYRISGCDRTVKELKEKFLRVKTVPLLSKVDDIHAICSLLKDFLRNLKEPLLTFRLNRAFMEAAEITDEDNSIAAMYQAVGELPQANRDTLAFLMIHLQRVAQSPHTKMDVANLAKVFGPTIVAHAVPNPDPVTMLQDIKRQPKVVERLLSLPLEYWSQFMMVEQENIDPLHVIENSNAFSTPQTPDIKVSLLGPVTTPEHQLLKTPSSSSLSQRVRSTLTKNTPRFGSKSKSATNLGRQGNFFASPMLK

Cytochrome P450 1A2 = target: T2, Cytochrome P450 1A2 (Homo sapiens, UniProt P05177);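 note: PubChem cytochrome P450 panel assay, CYP1A2 panel member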
T2 sequence (P05177 whole entry): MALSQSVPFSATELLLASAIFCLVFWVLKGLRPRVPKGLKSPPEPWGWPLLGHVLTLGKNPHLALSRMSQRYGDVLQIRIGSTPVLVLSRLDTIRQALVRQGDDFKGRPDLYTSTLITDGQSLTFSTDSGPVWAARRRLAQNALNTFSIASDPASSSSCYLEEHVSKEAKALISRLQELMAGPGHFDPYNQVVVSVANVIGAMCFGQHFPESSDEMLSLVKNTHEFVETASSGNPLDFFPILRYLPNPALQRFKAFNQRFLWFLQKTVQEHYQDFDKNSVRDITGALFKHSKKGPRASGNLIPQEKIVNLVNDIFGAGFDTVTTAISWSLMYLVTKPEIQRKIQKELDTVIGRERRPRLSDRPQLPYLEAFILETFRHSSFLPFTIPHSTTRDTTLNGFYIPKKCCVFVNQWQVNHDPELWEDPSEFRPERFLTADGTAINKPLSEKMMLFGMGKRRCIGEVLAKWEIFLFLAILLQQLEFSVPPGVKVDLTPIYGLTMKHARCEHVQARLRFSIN

[2] = Luminescence Cell-Based Dose Retest to Confirm Inhibitors of Cancer Stem Cells. [Related pubchem assays (depositor defined):AID2717, AID2721]; type: functional; details: Homo sapiens
Cytochrome P450 3A4 = Cytochrome P450 3A4 (Homo sapiens, UniProt P08684);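 note: CYP3A4 tested as one member of a cytochrome P450 panel screen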
Sequence of Cytochrome P450 3A4 (P08684 whole entry): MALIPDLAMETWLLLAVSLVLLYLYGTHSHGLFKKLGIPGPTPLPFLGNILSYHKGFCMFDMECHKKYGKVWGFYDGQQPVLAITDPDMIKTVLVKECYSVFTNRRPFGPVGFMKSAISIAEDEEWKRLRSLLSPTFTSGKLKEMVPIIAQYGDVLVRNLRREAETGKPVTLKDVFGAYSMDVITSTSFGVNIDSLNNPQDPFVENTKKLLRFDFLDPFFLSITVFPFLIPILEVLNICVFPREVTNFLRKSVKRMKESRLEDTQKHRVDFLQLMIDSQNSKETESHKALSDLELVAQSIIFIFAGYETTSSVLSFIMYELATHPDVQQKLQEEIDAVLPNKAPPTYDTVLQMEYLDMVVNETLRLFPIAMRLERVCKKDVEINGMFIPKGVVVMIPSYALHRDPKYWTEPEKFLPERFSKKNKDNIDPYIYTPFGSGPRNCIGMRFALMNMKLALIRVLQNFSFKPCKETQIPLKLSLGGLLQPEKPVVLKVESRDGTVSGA

[3] = target: T3, Corticotropin-releasing factor receptor 2/Corticotropin-releasing factor-binding protein (Homo sapiens, UniProt P24387+Q13324); assay: activators of CRF receptor 2 with binding protein – uHTS hits, confirmation (AID 602473); type: functional; details: read-out: EC50_Mean
T3 sequence (Q13324 whole entry): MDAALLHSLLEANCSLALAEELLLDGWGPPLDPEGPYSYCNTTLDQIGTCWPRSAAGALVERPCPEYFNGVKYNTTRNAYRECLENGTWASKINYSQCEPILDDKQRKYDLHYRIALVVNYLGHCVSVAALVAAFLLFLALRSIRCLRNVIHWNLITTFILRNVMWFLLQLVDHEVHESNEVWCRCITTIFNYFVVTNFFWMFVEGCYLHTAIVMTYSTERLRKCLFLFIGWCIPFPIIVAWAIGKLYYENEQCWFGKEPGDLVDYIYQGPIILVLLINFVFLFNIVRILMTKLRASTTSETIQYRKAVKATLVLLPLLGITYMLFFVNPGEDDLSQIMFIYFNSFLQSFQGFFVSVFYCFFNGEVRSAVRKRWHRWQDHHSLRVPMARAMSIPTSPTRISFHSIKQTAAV
T3 sequence (P24387 whole entry): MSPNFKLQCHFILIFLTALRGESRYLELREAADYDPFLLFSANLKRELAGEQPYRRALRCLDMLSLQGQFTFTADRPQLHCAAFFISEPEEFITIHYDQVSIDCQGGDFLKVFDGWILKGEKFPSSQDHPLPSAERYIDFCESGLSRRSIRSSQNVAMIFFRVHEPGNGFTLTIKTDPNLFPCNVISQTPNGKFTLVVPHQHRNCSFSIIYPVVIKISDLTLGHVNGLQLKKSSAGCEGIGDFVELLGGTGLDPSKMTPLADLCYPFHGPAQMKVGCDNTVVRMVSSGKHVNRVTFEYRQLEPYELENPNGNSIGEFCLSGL

Sequence of Cytochrome P450 2C9 (P11712 whole entry): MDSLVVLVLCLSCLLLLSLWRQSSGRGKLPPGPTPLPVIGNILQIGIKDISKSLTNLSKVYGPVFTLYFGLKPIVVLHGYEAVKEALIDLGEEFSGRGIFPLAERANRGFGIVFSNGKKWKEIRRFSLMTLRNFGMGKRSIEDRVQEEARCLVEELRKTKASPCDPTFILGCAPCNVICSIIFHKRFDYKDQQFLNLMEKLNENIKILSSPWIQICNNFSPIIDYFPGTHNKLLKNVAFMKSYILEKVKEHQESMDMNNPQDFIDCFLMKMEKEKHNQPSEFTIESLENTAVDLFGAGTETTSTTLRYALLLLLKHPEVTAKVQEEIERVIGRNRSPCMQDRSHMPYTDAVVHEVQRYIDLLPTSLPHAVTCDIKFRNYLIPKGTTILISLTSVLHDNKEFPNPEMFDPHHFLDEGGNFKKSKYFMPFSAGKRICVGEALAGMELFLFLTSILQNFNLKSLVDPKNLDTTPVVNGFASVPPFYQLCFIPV
Sequence of Cytochrome P450 2C19 (P33261 whole entry): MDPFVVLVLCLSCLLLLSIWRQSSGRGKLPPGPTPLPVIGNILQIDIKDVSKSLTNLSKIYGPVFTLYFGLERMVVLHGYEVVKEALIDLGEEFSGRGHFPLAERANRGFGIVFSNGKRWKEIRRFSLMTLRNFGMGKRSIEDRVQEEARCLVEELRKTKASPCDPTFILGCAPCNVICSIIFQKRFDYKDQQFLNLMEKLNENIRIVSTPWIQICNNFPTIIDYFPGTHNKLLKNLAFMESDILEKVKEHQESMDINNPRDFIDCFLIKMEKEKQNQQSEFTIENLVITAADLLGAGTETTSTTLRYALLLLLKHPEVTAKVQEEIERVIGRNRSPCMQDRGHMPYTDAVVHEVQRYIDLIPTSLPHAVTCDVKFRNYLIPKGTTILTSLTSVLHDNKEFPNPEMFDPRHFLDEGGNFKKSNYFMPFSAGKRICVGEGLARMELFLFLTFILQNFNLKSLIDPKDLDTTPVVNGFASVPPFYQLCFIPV

In the case of CN(C)CCCNC(=O)CCc1nc(O)c2ccccc2n1, the AC50 (Cytochrome P450 2C9) is reported as 1 µM (inconclusive) and the AC50 (Cytochrome P450 2C19) is reported as 7.08 µM (inconclusive).
For CCn1c(C)nc2cc(C(=O)NNS(=O)(=O)c3ccccc3F)ccc21, the AC50 (Cytochrome P450 2C9) was 20 µM (inconclusive).
In the case of COc1ccc(CNC(=O)CN(C)Cc2ccc(C(C)(C)C)cc2)cc1, the IC50 [1] is reported as 106 µM (active).
In the case of Cc1ccc2c(c1)-c1c(cnn1CC(=O)O)CO2, the AC50 (Cytochrome P450 1A2) is reported as 0.794 µM (inconclusive) and the AC50 (Cytochrome P450 2C9) is reported as 11.2 µM (inconclusive).
In the case of COc1cccc(-c2sc3ccc(OC)cc3c2-c2ccc(O)cc2)c1, the AC50 [2] is reported as 2.67 µM (active).
In the case of COc1cc(OC)cc(-c2sc3ccc(OC)cc3c2C#CCCO)c1, the AC50 [2] is reported as 4 µM (active).
With Cc1cccc(OC(=O)CN2C(=O)C3C4CCC(C4)C3C2=O)c1C (configuration not stated) the AC50 (Cytochrome P450 2C9) was 2 µM (inconclusive).
With COC(=O)N1CC(=O)N(OC)C1c1ccc(Cl)cc1Cl (configuration not stated) the AC50 (Cytochrome P450 2C9) was 0.316 µM (inconclusive).
With Cc1cc(C)cc(Oc2nn[nH]n2)c1 the AC50 (Cytochrome P450 2C9) was 7.08 µM (inconclusive).
With Cc1cc(C)n(C(=O)c2cc3c(s2)CCCC3)n1 the AC50 (Cytochrome P450 2C19) was 2.24 µM (inconclusive) and the AC50 (Cytochrome P450 3A4) was 39.8 µM (inconclusive).
For COc1ccc(-n2c(=O)c(CCc3ccccc3)nc3cnc(N(C)C)nc32)cc1, the AC50 (Cytochrome P450 1A2) was 3.16 µM (inconclusive) and the AC50 (Cytochrome P450 3A4) was 3.16 µM (inconclusive).
For O=C(NCc1ccc(OC(F)(F)F)cc1)c1cccc2c1C(=O)c1ccc(N3CCC(Cc4ccccc4)CC3)cc1S2(=O)=O, the EC50 [3] was 8.45 µM (active).
In the case of CCOC(=O)c1[nH]c(C)c(C)c1C, the AC50 (Cytochrome P450 2C9) is reported as 1.12 µM (inconclusive) and the AC50 (Cytochrome P450 2C19) is reported as 17.8 µM (inconclusive).
For CCCCCCCCCCCCN1[C@@H](CC(C)=O)c2cc(F)ccc2S1(=O)=O, the AC50 [2] was 5.3 µM (active).
For Cc1cc(NC(=O)CCC(=O)N(CC2CCCO2)C(C(=O)NC2CCCC2)c2cccnc2)no1 (configuration not stated), the AC50 (Cytochrome P450 2C9) was 17.8 µM (inconclusive) and the AC50 (Cytochrome P450 3A4) was 1.41 µM (inconclusive).
For COC(=O)c1c(NC(=O)Cn2cc([N+](=O)[O-])cn2)sc2c1CCC2, the AC50 (Cytochrome P450 2C9) was 3.55 µM (inconclusive) and the AC50 (Cytochrome P450 2C19) was 3.16 µM (inconclusive).
With O=[N+]([O-])c1ccc(-c2ccc(/C=N/Nc3nc(N4CCCC4)nc(N4CCCC4)n3)o2)cc1 the EC50 [3] was 2.8 µM (active).
With Cc1ccsc1/C=C1\Oc2cc(O)ccc2C1=O the EC50 [3] was 11.1 µM (active).
In the case of C/C=C(\C)C(=O)OC1CC(C)(C)C[C@H]2C3=CC[C@@H]4[C@@]5(C)CCC(O[C@@H]6O[C@@H](C(=O)O)[C@@H](O)C(O[C@@H]7OC[C@H](O)[C@@H](O)[C@@H]7O[C@@H]7OC(CO)C(O)[C@@H](O)[C@@H]7O)C6O[C@@H]6OC(CO)C(O)C(O)C6O)[C@@](C)(CO)[C@@H]5CC[C@]4(C)[C@]3(C)CC(O)[C@@]12CO (some centres not stated), the EC50 [3] is reported as 11.4 µM (active).
In the case of COc1cc(C=C2NC(=O)NC2=O)ccc1O, the IC50 [1] is reported as 19 µM (active).
With Cn1c(=O)n(C)c2cc(/C=N/NC(=O)c3ccc(Cl)cc3Cl)ccc21 the AC50 (Cytochrome P450 1A2) was 14.1 µM (inconclusive), the AC50 (Cytochrome P450 2C9) was 39.8 µM (inconclusive) and the AC50 (Cytochrome P450 3A4) was 0.0398 µM (inconclusive).
With COc1cc(OC)c(OC)cc1/C=N/N(C)c1ccccc1 the IC50 [1] was 43.7 µM (active).
With C/C(=N\NC(=O)C1CC1c1ccccc1)c1cccs1 (configuration not stated) the AC50 (Cytochrome P450 1A2) was 15.8 µM (inconclusive), the AC50 (Cytochrome P450 2C9) was 11.2 µM (inconclusive) and the AC50 (Cytochrome P450 2C19) was 2.24 µM (inconclusive). The AC50 (Cytochrome P450 3A4) was 8.91 µM (inconclusive).
For N[C@@H](Cn1oc(=O)[nH]c1=O)C(=O)O [QUISQUALATE], the AC50 (Cytochrome P450 1A2) was 39.8 µM (inconclusive) and the AC50 (Cytochrome P450 3A4) was 1 µM (inconclusive).
